Measurements reported in article PMC9468151, “Identification of a binding site on soluble RANKL that can be targeted to inhibit soluble RANK-RANKL interactions and treat osteoporosis” (Nature Communications, 2022).
“And” between values parts separate entries of the source, which are not always exact repeats. Equal entries are not always repeated.

Experiments:
[1] = test system: RAW264.7 cells; test: In vitro cytotoxicity assay (MTT); format: cell-based, mouse; conditions: RAW264.7, MTT
Experimental: MTT assay was used to determine cell viability. RAW264.7 cells in the logarithmic growth phase were cultured in 96-well plates with 6 × 10^3 cells in each well and incubated for 24 h. The surviving cells were then determined by MTT method. […] Cell growth inhibition ratio was calculated as follows: Cellgrowthinhibitionratio%=ODvehicle−ODtreaed/ODvehicle×100%
Cell cytotoxicity CC50 value were conducted by using Nonlinear regression (curve fit) analytic procedure in GraphPad Prism 8.

[2] = test system: sRANKL induced osteoclast differentiation; test: In vitro anti-osteoclastogenesis activity determination (TRAP staining); format: cell-based, mouse; parameters: key to inhibition of osteoclastogenesis, dose-response (fig. S2a): % inhibition = 100 − (treated−unstimulated)/(untreated−unstimulated)×100; conditions: for IC50: BMMs, M-CSF + 100 ng/mL sRANKL, 5 days, TRAP staining, read-out: OC IC50 (anti-osteoclastogenesis activity); for inhibition of osteoclastogenesis, dose-response (fig. S2a): three replicate columns
Experimental: Mouse osteoclasts were cultured according to the previously reported protocols. BMMs were plated in 96-well plates at a density of 6 × 10^3 cells/well with complete medium containing 10 ng/mL M-CSF. The following day, cells were then stimulated with 100 ng/mL sRANKL in the presence or absence of compounds with different concentrations every 2 days until osteoclasts formed. In order to calculate IC50, we set 9 concentrations for each compound and untreated and non-sRANKL unstimulating group as controls, each with triplicated repeated wells. After 5 days, cells were fixed with 4% paraformaldehyde and then applied TRAP-staining to identify osteoclasts by using the TRAP-staining kit. Osteoclasts number (OC No.) in each well was counted and the percentage of inhibition ratio was calculated as follows:1 OCinhibitoryratio%=100−OCNo.treated−OCNo.unstimulating/OCNo.untreated−OCNo.unstimulating×100%
The dosages and their correspondent osteoclastogenesis inhibitory activity curve and IC50 value were conducted by using Nonlinear regression (curve fit) analytic procedure in GraphPad Prism 8. Photographs of individual wells were taken using Leica microscope.

Compound | CC50 [1] [µM] | IC50 [2] [µM] | inhibition of osteoclastogenesis, dose-response (fig. S2a) ([2]; conc. 0.0023464 μM) | inhibition of osteoclastogenesis, dose-response (fig. S2a) ([2]; conc. 0.00774313 μM) | inhibition of osteoclastogenesis, dose-response (fig. S2a) ([2]; conc. 0.0255523 μM) | inhibition of osteoclastogenesis, dose-response (fig. S2a) ([2]; conc. 0.0843226 μM) | inhibition of osteoclastogenesis, dose-response (fig. S2a) ([2]; conc. 0.278265 μM) | inhibition of osteoclastogenesis, dose-response (fig. S2a) ([2]; conc. 0.918274 μM) | inhibition of osteoclastogenesis, dose-response (fig. S2a) ([2]; conc. 3.0303 μM) | inhibition of osteoclastogenesis, dose-response (fig. S2a) ([2]; conc. 10 μM) | inhibition of osteoclastogenesis, dose-response (fig. S2a) ([2]; conc. 33 μM)
COC(=O)c1cccc(NC(=O)C(=NNc2ccccc2C(=O)O)C(C)=O)n1 [S3-15-2] | > 100 | 1.26 | 11.9718 and 6.338 and 4.225 | 7.394 and 8.4507 and 9.155 | 9.507 and 6.338 and 9.155 | 31.6901 and 21.831 and 24.2958 | 33.0986 and 27.4648 and 28.169 | 47.1831 and 47.5352 and 44.3662 | 59.1549 (2×) and 58.0986 | 72.8873 and 71.1268 and 70.4225 | 88.3803 and 89.4366 and 88.7324
CC(=O)C(=NNc1ccc(O)cc1C(=O)O)C(=O)Nc1ccccn1 [S3-15-3] | 62.8 | 3.59 | 7.632 and 19.0789 and 12.7632 | 4.079 and 5.263 and 2.105 | 2.105 and -3.421 and -3.026 | 11.579 and 29.3421 and 8.026 | 15.5263 and 26.9737 and 19.0789 | 44.7368 and 36.4474 and 37.6316 | 52.6316 and 53.8158 and 45.1316 | 64.4737 and 56.1842 and 57.3684 | 73.9474 and 72.3684 and 70.7895
CC(C)OC(=O)C(=NNc1ccccc1C(=O)O)C(=O)Nc1ccccn1 [S3-15-4] | 57.2 | 0.62 | 19.4737 and 18.6842 and 17.1053 | 16.7105 and 16.3158 and 13.9474 | 17.8947 and 11.579 and 18.2895 | 16.7105 and 20.2632 and 17.8947 | 34.8684 and 32.5 and 38.8158 | 53.8158 and 43.9474 and 58.5526 | 73.9474 and 71.9737 and 70.3947 | 88.5526 and 83.421 and 86.579 | 100
CC(=O)C(=NNc1ccccc1C(=O)O)C(=O)Nc1nc2ccccc2s1 [S3-16] | 69.2 | 0.73 | – | 3.543 and 4.724 and 0.7874 | 9.449 and 8.661 (2×) | 16.9291 and 24.4094 and 12.9921 | 30.315 and 29.5276 and 31.1024 | 51.1811 and 52.7559 and 54.7244 | 73.2284 and 71.6535 and 75.1968 | 82.6772 and 95.2756 and 99.2126 | 100
CC(=O)C(=NNc1ccccc1C(=O)O)C(=O)N1CCc2ccccc2C1 [S3-17] | 82.1 | 6.74 | 4.167 and -4.167 and 1.19 | 7.7381 and 11.9048 and 8.036 | 13.9881 and 14.2857 and 19.3452 | 22.9167 and 21.7262 and 26.4881 | 30.3571 and 29.4643 and 30.6548 | 35.1191 and 33.0357 and 33.6309 | 38.6905 and 40.1786 and 34.5238 | 50.8929 and 50 and 48.8095 | 63.3929 and 63.6905 and 75.5952
